Data set [1] relates to NTUB1 cells. In words: MTT cytotoxicity assay, NTUB1 cells. The class given is cell-based, human. The following applies: for IC50: mean ± SD, n = 3-5. The text has this:
(§1) The cell lines of the present invention were an human urothelial carcinoma cell line (NTUB1), a human prostate cancer cell line (PC3), a human lung adenocarcinoma epithelial cell line (A549) and a SV-40 immortalized human uroepithelial cell line (SV-HUC1). However, the cell lines applied in the present invention includes but not limit in NTUB1, PC3, A549 and SV-HUC1 cells. Other cell lines having the same characteristics or not exactly the same characteristics are able to be used in the present invention. NTUB1, PC3 and A549 cells were maintained in RPMI 1640 and SV-HUC1 cells were maintained in F12 medium supplemented with 10% fetal bovine serum (FBS), 100 unit/mL penicillin-G, 100 μg/mL streptomycin and 2 mM glutamine. The cells were cultured at 37° C. in a humidified atmosphere containing 5% carbon dioxide.
(§2) The cytotoxic effect of compounds 1 to 18 of the present invention and cisplatin (positive control) on the cell lines was evaluated using 3-[4,5-dimethylthiazol-2-yl]-2,5-diphenyltetrazolium bromide (MTT) assay. Briefly, the cells were plated at a density of 1800 cells/well in 96-well plates and incubated in the presence of graded concentrations of compounds 1 to 18 and cisplatin at 37° C. for 72 hours. At the end of the culture period, 50 μL of MTT ([…] in PBS) was added to each well and allowed to react for 3 hours. Following centrifugation of plates at 1000 g for 10 minutes, media were removed and 150 μL dimethyl sulfoxide (DMSO) were added to each well. The proportions of surviving cells were determined by absorbance spectrometry at 540 nm. The cell viability was expressed as a percentage to the viable cells of control culture condition. The IC50 value of each group were calculated by the median-effect analysis and presented as mean±standard deviation (SD).
On the technique in general: Tetrazolium assays rely on reduction of a dye to a coloured formazan, in cell work by metabolically active cells.

For data set [2], the system named is PC3 cells. As to the kind of experiment: MTT cytotoxicity assay, PC3 cells. In kind it is cell-based, human. The note with it: for IC50: mean ± SD, n = 3-5.
Text: as §1, §2

The subject of data set [3] is NTUB1 cells. In words: Cell cycle analysis (propidium iodide, flow cytometer), NTUB1 cells. In kind it is cell-based, human. The note with it: 24 hours, FIG. 2. As for the experimental part:
(§3) DNA content was determined following propidium iodide (PI) staining of cells. Briefly, 6×10^5 cells were plated and treated with 20 μM cisplatin and various concentrations of compounds 11 and 15 for 24 hours, respectively. These cells were harvested by trypsinization, washed with 1×PBS, and fixed in ice-cold MeOH at −20° C. After overnight incubation, the cells were washed with PBS and incubated with 50 μg/mL propidium iodide and 50 μg/mL RNase A in PBS at room temperature for 30 minutes. The fractions of cells in each phase of cell cycle were analyzed using flow cytometer.
Background: A flow cytometer gives signals particle by particle.

The subject of data set [4] is PC3 cells. In words: Cell cycle analysis (propidium iodide, flow cytometer), PC3 cells. The class given is cell-based, human. The note with it: FIG. 3. Here is the method:
as §3

For a further data set, the system named is α-tubulin. As to the kind of experiment: Western blot analysis for α-tubulin (soluble vs assembled) in NTUB1 cells. The class given is cell-based, human. The following applies: NTUB1, 500 nM, 6 hours, FIG. 4. As for the experimental part: NTUB1 cells were seeded at a density of 1×10^6/[…] dishes and treated with indicated concentrations of test agents for 6 hours. The cells were then washed with cold PBS and lysed by adding lysis buffer (20 mM Tris-HCl (pH 6.8), 1 mM MgCl2, 2 mM EGTA (ethylene glycol tetraacetic acid), […] aprotinin, […], 1 mM phenylmethylsulfonyl fluoride, 1 mM orthovanadate, and 0.5% Nonidet P-40). The cell lysates were centrifuged at 15,000 g for 10 min at 4° C. Soluble and assembled tubulin could be separated in supernatant and pellet fraction, respectively. The supernatants and pellets were […] by the sodium dodecyl sulfate (SDS)-polyacrylamide gel electrophoresis assay. The relative amounts of tubulins transferred on the nitrocellulose membrane were detected by anti-tubulin monoclonal antibody and horseradish peroxidase (HRP)-conjugated secondary antibody. β-Actin was used for control. Detection of immunoreactive signal was accomplished with Western blot chemiluminescent reagent.
For orientation: In western blotting, separated proteins are transferred to a membrane and probed.

The term IC50 denotes the concentration at which inhibition is half-maximal. For orientation: melting point means the temperature, or range, at which the solid turns liquid. Consider `CCNC(=O)c1ccc(/C=C/C(=O)c2cc(OC)ccc2OC)cc1` [Compound 9, 4-ethylcarbamoyl-2′,5′-dimethoxychalcone], for which the melting point was in the range of 213 to 214 °C. Also, the IC50 in the data set on NTUB1 cells [1] (Homo sapiens, NTUB1, 72 hours) was 3.76 ± 0.4 µM. Also, inhibition in the data set with PC3 cells [2] (Homo sapiens, PC-3, 72 hours) was half-maximal at 4.18 ± 0.23 µM (IC50).

`COc1ccc(OC)c(C(=O)C=Cc2ccc(C(=O)N(C)CCO)cc2)c1` [Compound 16, 4-(2-hydroxyethyl)methyl-carbamoyl-2′,5′-dimethoxychalcone]: the IC50 in the data set on NTUB1 cells [1] (72 hours) was 4.42 ± 0.15 µM; in the data set with PC3 cells [2] (72 hours), 5.75 ± 1.27 µM.

On to `COc1ccc(OC)c(C(=O)/C=C/c2ccc(C(=O)NC3CCCCC3)cc2)c1` [Compound 13, 4-cyclohexylcarbamoyl-2′,5′-dimethoxychalcone], for which the melting point fell in the range of 280 to 281 °C. The IC50 in the data set on NTUB1 cells [1] (Homo sapiens, NTUB1, 72 hours) stood at 2.25 ± 0.57 µM. Inhibition in the data set with PC3 cells [2] (Homo sapiens, PC-3, 72 hours) was half-maximal at 6.3 ± 0.59 µM (IC50).

As to `CCN(CC)C(=O)c1ccc(/C=C/C(=O)c2cc(OC)ccc2OC)cc1` [Compound 14, 4-diethylcarbamoyl-2′,5′-dimethoxychalcone], the IC50 with NTUB1 cells [1] (Homo sapiens, NTUB1, 72 hours) worked out at 2.69 ± 0.47 µM; in the data set with PC3 cells [2] (Homo sapiens, PC-3, 72 hours), 3.79 ± 0.56 µM.

With `N.N.[Cl][Pt][Cl]` [Cisplatin, cisplatin, reference compound], the IC50 came out at 3.27 ± 0.1 µM in the data set with NTUB1 cells [1] (72 hours) and 4.56 ± 0.76 µM in the data set on PC3 cells [2] (72 hours). The cell cycle distribution entry in the data set with NTUB1 cells [3] (NTUB1, 20 μM) was “accumulation of cells in G1 and S phases”; with PC3 cells [4] (PC3, 20 μM, 24 hours) it was “accumulation of cells in S phase”. For the same compound, the sub-G1 population result with NTUB1 cells [3] (NTUB1, 20 μM) was “increase of the population of sub-G1 phase”. In addition, in the data set on PC3 cells [4] (PC3, 20 μM, 24 hours), the apoptotic cell death entry is given as “increase of apoptotic cell death”.

For `COc1ccc(OC)c(C(=O)/C=C/c2ccc(C(=O)OCC=C(C)C)cc2)c1` [Compound 7, 4-(3-methyl-but-2-enyloxycarbonyl)-2′,5′-dimethoxychalcone], the IC50 is 13.4 ± 0.78 µM in the data set with NTUB1 cells [1] (Homo sapiens, NTUB1, 72 hours) and above 50 µM in the data set with PC3 cells [2] (Homo sapiens, PC-3, 72 hours).

Regarding `CCCOC(=O)c1ccc(C=CC(=O)c2cc(OC)ccc2OC)cc1` [Compound 4, propoxycarbonyl-2′,5′-dimethoxychalcone], the IC50 was determined as 6.01 ± 0.3 µM with NTUB1 cells [1] (72 hours) and 26.9 µM with PC3 cells [2] (72 hours).

The compound `COc1ccc(OC)c(C(=O)/C=C/c2ccc(C(=O)O)s2)c1` [Compound 18] showed a melting point of 237 to 238 °C. For the same compound, the “cytotoxicity against NTUB1 cells (in words)” value in the data set with NTUB1 cells [1] is recorded as “no significant cytotoxicity”. The compound also came in with an IC50 in the data set on NTUB1 cells [1] (Homo sapiens, NTUB1, 72 hours) above 50 µM.

As to “4-(2-methylethyl)carbamoyl-2′,5′-dimethoxychalcone [Compound 11]”, the “cytotoxicity against NTUB1 cells (in words)” value in the data set with NTUB1 cells [1] is “significantly enhanced the cytotoxicity”. The concentration for half-maximal inhibition (IC50) in the data set on NTUB1 cells [1] (72 hours) turned out to be 1.97 ± 0.39 µM; with PC3 cells [2] (72 hours), 1.58 ± 0.08 µM. Further, in the data set with PC3 cells [2], the “cytotoxicity against PC3 cells (in words)” value is given as “significantly enhanced the cytotoxicity”. The apoptotic cell death entry in the data set on NTUB1 cells [3] (NTUB1, 1 μM) was “increase in apoptotic cell death”. Besides, the “cell cycle phase arrest” value in the data set on NTUB1 cells [3] (NTUB1, 1 μM, vs control) is on record as “induced G1 phase arrest”. In the data set on PC3 cells [4] (PC3, 0.3 μM), the apoptotic cells death entry was “increase of the apoptotic cells death”. Besides, the apoptotic cells entry in the data set on PC3 cells [4] (PC3, 1 μM) is “increase of apoptotic cells”.

Take `COc1ccc(OC)c(C(C=Cc2ccc(C(=O)NC3CC3)cc2)=NC2CC2)c1` [Compound 17, N-cyclopropyl-4-[3-cyclopropylimino-3-(2′,5′-dimethoxy-phenyl)-propenyl]-benzamide]: the results for the IC50 in the data set with NTUB1 cells [1] (72 hours) and in the data set on PC3 cells [2] (72 hours) were 3.57 ± 0.47 µM and 4.26 ± 0.81 µM, respectively.

The compound `CCOC(=O)c1ccc(/C=C/C(=O)c2cc(OC)ccc2OC)cc1` (hydrate or solvate) [Compound 3, 4-ethoxycarbonyl-2′,5′-dimethoxychalcone] gave a melting point of 118 to 119 °C.

Take `COc1ccc(OC)c(C(=O)/C=C/c2ccc(C(=O)OCc3ccccc3)cc2)c1` [Compound 6, 4-benzyloxycarbonyl-2′,5′-dimethoxychalcone]: the IC50 came out at 13.3 ± 2.86 µM in the data set on NTUB1 cells [1] (Homo sapiens, NTUB1, 72 hours) and 17.9 ± 0.5 µM in the data set on PC3 cells [2] (Homo sapiens, PC-3, 72 hours).

Take `COc1ccc(OC)c(C(=O)/C=C/c2ccc(C(=O)O)cc2)c1` [Compound 1, 4-carboxyl-2′,5′-dimethoxychalcone]: the melting point lay in the range of 214 to 215 °C. In addition, the “cytotoxicity against NTUB1 cells (in words)” value with NTUB1 cells [1] is “significantly cytotoxic activities”. This compound showed an IC50 with NTUB1 cells [1] (Homo sapiens, NTUB1, 72 hours) of 5.7 ± 0.68 µM. This compound also had an IC50 with PC3 cells [2] (Homo sapiens, PC-3, 72 hours) of 7.24 ± 0.58 µM.

For the compound `COc1ccc(OC)c(C(=O)/C=C/c2ccc(C(=O)OC(C)C)cc2)c1` [Compound 5, 4-isopropoxycarbonyl-2′,5′-dimethoxychalcone], the IC50 with NTUB1 cells [1] (Homo sapiens, NTUB1, 72 hours) is 4.42 ± 0.5 µM; with PC3 cells [2] (Homo sapiens, PC-3, 72 hours), 6.74 ± 1.34 µM.

As to `CCOC(=O)c1ccc(/C=C/C(=O)c2cc(OC)ccc2OC)cc1` [Compound 3, 4-ethoxycarbonyl-2′,5′-dimethoxychalcone], the IC50 in the data set with NTUB1 cells [1] (Homo sapiens, NTUB1, 72 hours) is 4.49 ± 0.98 µM; in the data set with PC3 cells [2] (Homo sapiens, PC-3, 72 hours) it was 5.7 ± 0.43 µM.

With `CCCNC(=O)c1ccc(/C=C/C(=O)c2cc(OC)ccc2OC)cc1` [Compound 10, 4-propylcarbamoyl-2′,5′-dimethoxychalcone], the “cytotoxicity against NTUB1 cells (in words)” value in the data set with NTUB1 cells [1] is reported as “significantly enhanced the cytotoxicity”. Further, the IC50 in the data set on NTUB1 cells [1] (Homo sapiens, NTUB1, 72 hours) came out at 2.26 ± 0.31 µM; in the data set on PC3 cells [2] (Homo sapiens, PC-3, 72 hours), 1.5 ± 0.22 µM. Further, the “cytotoxicity against PC3 cells (in words)” value in the data set with PC3 cells [2] is “significantly enhanced the cytotoxicity”.

Turning to `CC(=O)O[C@H]1C(=O)[C@@]2(C)[C@H]([C@H](OC(=O)c3ccccc3)[C@]3(O)C[C@H](OC(=O)[C@H](O)[C@@H](NC(=O)c4ccccc4)c4ccccc4)C(C)=C1C3(C)C)[C@]1(OC(C)=O)CO[C@@H]1C[C@@H]2O` [Paclitaxel, paclitaxel, reference compound], in the data set with α-tubulin, the tubulin assembly result is “stabilized the tubulin assembly”.

`COC(=O)c1ccc(/C=C/C(=O)c2cc(OC)ccc2OC)cc1` [Compound 2, 4-methoxycarbonyl-2′,5′-dimethoxychalcone] gave a melting point of 118 to 119 °C. Besides, in the data set with NTUB1 cells [1] (Homo sapiens, NTUB1, 72 hours), the IC50 is 3.51 ± 0.45 µM. In the data set on PC3 cells [2] (Homo sapiens, PC-3, 72 hours), the midpoint of inhibition, the IC50, lay at 4.85 ± 0.11 µM.

For the compound `CNC(=O)c1ccc(/C=C/C(=O)c2cc(OC)ccc2OC)cc1` [Compound 8, 4-methylcarbamoyl-2′,5′-dimethoxychalcone], the melting point fell in the range of 217 to 218 °C. Also, the IC50 in the data set on NTUB1 cells [1] (Homo sapiens, NTUB1, 72 hours) stood at 2.2 ± 0.37 µM. The IC50 in the data set on PC3 cells [2] (Homo sapiens, PC-3, 72 hours) came to 2.13 ± 0.21 µM.

In the case of `COc1ccc(OC)c(C(=O)/C=C/c2ccc(C(=O)N(C)C)cc2)c1` [Compound 12, 4-dimethylcarbamoyl-2′,5′-dimethoxychalcone], the IC50 came to 3.89 ± 0.21 µM in the data set with NTUB1 cells [1] (Homo sapiens, NTUB1, 72 hours) and 4.58 ± 1.05 µM in the data set on PC3 cells [2] (Homo sapiens, PC-3, 72 hours).

The record behind these values is US20110306775A1, “SYNTHESIS AND BIOLOGICAL EVALUATION OF 2',5'-DIMETHOXYCHALCONE DERIVATIVES AS MICROTUBULE-TARGETED ANTICANCER AGENTS” (KAOHSIUNG MEDICAL UNIVERSITY, priority 2010, published 2011).
